From paper PMC11035696, “Prospective de novo drug design with deep interactome learning” (Nature Communications, 2024)

How the values were obtained:
[1] = Microsomal clearance, rat; format: in vitro ADME; details: rat microsomes, single point measurement
Procedure: (§1) Compounds 1–3 were characterized in a hybrid reporter gene assay for their agoniztic effect on human nuclear receptors PPARα/γ/δ, RXRα, FXRα, RARα in HEK293T cells. Compound 1 was tested in an isothermal titration calorimetry (ITC) assay to measure direct binding affinity to the ligand-binding domain of PPARγ. ADME properties were measured in standardized assays at Roche.
(§2) SI11Absorption Distribution Metabolism and Excretion and Toxicity Data
(§3) To assess the drug-like characteristics of the newly designed PPAR modulators, a series of tests were conducted covering various aspects of absorption, distribution, metabolism, and excretion (ADME) properties. Specifically, these assessments included the parallel artificial membrane permeability assay (PAMPA) with permeation co- […]
(§4) efficients ([…]), LogD measurements, microsomal clearance, hepatocyte clearance, P-glycoprotein (Pgp) efflux ratio and binding and the unbound free fraction. […] For seven selected CYP proteins (i.e., Cyp3A4, Cyp1A2, Cyp2B6, Cyp2C9, Cyp2D6, Cyp2C19, and Cyp2C8) the half maximal inhibitory con-centration (IC50) was determined. […]
(§5) Compounds 1 and 2 were validated for cytotoxicity on HEK293T cells. Figure S16 depicts the measured cyto-toxicity at two time points (i.e., 16h and 24h), 10 different concentrations (i.e., 0.05 - 20 µM), and 5 different

[2] = Microsomal clearance, mouse; format: in vitro ADME; details: mouse microsomes, single point measurement
Procedure: as §1, §2, §3, §4, §5

[3] = Parallel artificial membrane permeability assay (PAMPA); format: in vitro ADME; details: read-out: […] permeation coefficient
Procedure: as §1, §2, §3
(§6) efficients ([…]), LogD measurements, microsomal clearance, hepatocyte clearance, P-glycoprotein (Pgp) efflux ratio and binding and the unbound free fraction. […]
(§7) Table S14: Absorption distribution metabolism and excretion (ADME) properties of compounds 1 and 2. The […]
(§8) values for […], LogD, protein binding, P-glycoprotein (Pgp) efflux ratio and permeability, and hepato-cyte clearance are presented as the mean and standard deviation, with a sample size of N = 3, i.e., 3 technical replicates each. The values for microsomal clearance and CYP-inhibition represent single point measurements. […]

[4] = Lipophilicity (LogD pH 7.4); format: physicochemical
Procedure: as §1, §2, §3, §6, §7, §8

[5] = Microsomal clearance, human; format: in vitro ADME; details: human microsomes, single point measurement
Procedure: as §1, §2, §3, §4, §5

[6] = tested on: PPARγ; details: known PPARγ activity of ChEMBL ligands; ref ChEMBL database; cited from earlier work

CO[C@@H](Cc1ccc(OCCc2nc(-c3ccccc3)oc2C)c2ccsc12)C(=O)O [aleglitazar]
Microsomal clearance, rat [1]: ≥ 10 µL·min−1·mg−1 protein | Microsomal clearance, mouse [2]: ≥ 10 µL·min−1·mg−1 protein | Papp [3]: 6 ×10⁻⁶ cm/s | logD [4]: 1.4 | Microsomal clearance, human [5]: ≥ 10 µL·min−1·mg−1 protein

Cc1cc(OCC[C@@H](C)Oc2ccc(Cl)cc2-c2ccccn2)ccc1CCC(=O)O [ChEMBL241299]
pEC50 [6]: 6.51
